Source: patent EP4653017A1, “ANTIBODY-DRUG CONJUGATE AND USE THEREOF” (Tyligand Bioscience (Shanghai) Limited, priority 2023, dated 2024)
Counter-ions that a name gives are not always drawn.

What was measured:
THP-1 cells = test: Activation of IFN-β secretion by THP-1 cells (IFN-beta ELISA); format: cell-based, human
Daudi = test: Inhibition of tumor cell line proliferation (Table 3), Daudi; format: cell-based; conditions: Human Burkitt's lymphoma cells
4T1 = test: Inhibition of tumor cell line proliferation (Table 3), 4T1; format: cell-based; conditions: 4T1, Mouse breast cancer cells
CT26 cells = test: CT26 syngeneic mouse bilateral transplanted tumor model; format: in vivo, BALB/c mice; conditions: left (untreated) tumor; 50 µg compound/mouse (2.5 mg/kg) intratumorally into right flank on days 0 and 4; day 13 after treatment
Protocol: When tumors grew to an average volume of 100 mm^3, treatments were randomized and started based on tumor size and mouse body weight. The first day of dosing was Day 0. Two doses were administered, 50 µg compound/mouse (i.e., 2.5 mg/kg) was injected intratumorally into the right flank on days 0 and 4, and the same volume of PBS (Hyclone Company, Cat. No. #SH30258.01) was used as a control. The left tumor was left untreated. Control mice were sacrificed after 13 days of dosing and treated mice were sacrificed 21 days later. During the experiment, the tumor volume and body weight were measured three times a week on the left and right sides, and the tumor volume was calculated as V = D × d × d/2 (wherein D represents the long diameter of the tumor and d represents the short diameter of the tumor).

[1] = test system: human gastric cancer NCI-N87 cells; test: Inhibition of NCI-N87 cell proliferation (CTG assay); format: cell-based
Protocol: NCI-N87 cells (Cell Bank of Chinese Academy of Sciences, Cat. No. #TCHu130) were cultured at 37°C, 5% CO2, 95% humidity in RPMI 1640 + 10% FBS (ExCell Bio, Cat. No. #FND500), the cells in logarithmic growth phase were harvested and counted, and cell viability was measured using Countstar automated cell counter based on classical trypan blue staining principle to ensure that the cell viability was above 90%. The cell concentration was adjusted, 135 µL of cell suspension was added into 96 well clear flat bottom black wall plate (Corning, Cat. No. #3904), 2000/well, and the cells was incubated in 96 well plate at 37°C and 5% CO2.
The cells in the 96 well plates that had been dosed were incubated at 37°C, 5% CO2 for 5 days before performing CTG assay. the plate was equilibrated to room temperature for 30 min and CTG Reagent (CellTiter-Glo® Luminescent Cell Viability Assay (Promega, Cat. No. #G7573) was melt, 50 µL of CTG Solution was added to each well, and shaked on an orbital shaker for 2 min to lyse the cells. The plate was left at room temperature for 10 min to stabilize the cold light signal and the cold light value was read (EnVision® Multifunctional Plate Reader, PerkinElmer#2105). [formula]
GraphPad Prism software was used to analyze the data, and Dose-response-inhibition equation was used to fit the data to obtain the dose-response curve from which IC50 value was calculated. […]

[2] = test system: human ovarian cancer SK-OV-3; test: SK-OV-3 subcutaneous xenograft model, Example 7 (ADC-1, ADC-2); format: in vivo, BALB/c Nude mice; conditions: 0.1 mg/kg; for Tumor growth inhibition (TGI) / Rate of complete tumor regression (TV = 0 mm^3): Day 21; for Rate of complete tumor regression (TV = 0 mm^3): 5 mice
Protocol: 0.1 mL (1×10^7) of human ovarian cancer SK-OV-3 cells (purchased from ATCC, Cat#HTB-77) (PBS: matrigel volume ratio of 1:1) was subcutaneously inoculated into the right posterior back of each mouse (BALB/c Nude mice, 6-8 weeks old, female, Jiangsu GemPharmatech Co., Ltd.). When the mean tumor volume reached approximately 150 mm^3, the mice were randomly divided into 9 experimental groups, with 5 mice in each group. […] Group 9 was received intratumoral injection of CDN-3 0.1 mg/kg on Days 0, 4, and 7 of the study for a total of 3 drug doses (see Table 4 for animal grouping). The vehicle was a PBS buffer. Tumor volume and body weight were measured twice weekly during the experimental period, and data was recorded. Tumor volume was calculated according to the formula in Example 3.

SMILES: Nc1nc2c(ncn2[C@@H]2O[C@@H]3CO[P@@](=O)(S)O[C@H]4[C@H](F)[C@H](n5cnc6c(N)nc(Cl)nc65)O[C@@H]4CO[P@@](=O)(S)O[C@@H]2[C@@H]3O)c(=O)[nH]1 [CDN-3, (2',3')-cyclo-(Rp,Rp)-[2'-O-thiophosphodiester-guanosine]-[3'-O-thiophosphodiester-2-chloro-2'-deoxy-2'-fluoro-beta-adenosine]diammonium salt]
- STING agonist activity (in words) (THP-1 cells; EC50 stronger than 2',3'-cGAMP, comparable to ADU-S100): significant STING agonist activity
- EC50 (THP-1 cells; Homo sapiens, THP-1, 24 h, read-out: THP-1 activity): 1000 to 10000 nM
- IC50 (Daudi): 423 nM
- IC50 (4T1): 2270 nM
- growth inhibition rates of left tumors (CT26 cells): 91.2%
- inhibitory effects on NCI-N87 cell proliferation (in words) [1]: strong inhibitory effects
- IC50 ([1]; Homo sapiens, 120 h, NCI-N87, 5 days incubation, top concentration 600 nM): 209 nM
- Tumor Volume (mm^3, Day 21) ([2]; i.t., day 0, 4, 7): 540 ± 47 mm^3
- Tumor growth inhibition (TGI) ([2]; i.t., day 0, 4, 7): 39%
- Rate of complete tumor regression (TV = 0 mm^3) ([2]; i.t., day 0, 4, 7): 0% (0/5)
- Tumor Volume (mm^3, Day 21) ([2]; i.v., day0): 723 ± 140 mm^3
- Tumor growth inhibition (TGI) ([2]; i.v., day0): 10%
- Rate of complete tumor regression (TV = 0 mm^3) ([2]; i.v., day0): 0% (0/5)
